Experimental data published in patent publication US20260374739A1, “SMALL MOLECULAR WEIGHT CHEMICAL COMPOUND TO ANTAGONIZE EPH-EPHRIN TETRAMERIZATION AND INHIBIT BIDIRECTIONAL SIGNALING” (THE BOARD OF REGENTS OF THE UNIVERSITY OF TEXAS SYSTEM, priority 2022, published 2026).
Values joined by “and” are separate entries in the source; they are usually repeats but may differ in a detail not shown here. Equal entries are not always repeated. Where two headings read alike, the source gives them in different places. Marks after values point to notes of the source that are not given here.

Columns and labels:
[1] = target: T1, EphB1-EphrinB2 (EB2) (Rattus norvegicus, UniProt P09759); experiment: Alpha assay EphB1-EphrinB2 (EB2) interaction; format: binding, mouse EB2
T1 construct: rat EphB1-Fc residues 18-538; mouse EB2-His residues 18-232; purchased R&D Systems (EphB1-Fc); Sino Biologicals (EB2-His)
T1 sequence (P09759 18-538): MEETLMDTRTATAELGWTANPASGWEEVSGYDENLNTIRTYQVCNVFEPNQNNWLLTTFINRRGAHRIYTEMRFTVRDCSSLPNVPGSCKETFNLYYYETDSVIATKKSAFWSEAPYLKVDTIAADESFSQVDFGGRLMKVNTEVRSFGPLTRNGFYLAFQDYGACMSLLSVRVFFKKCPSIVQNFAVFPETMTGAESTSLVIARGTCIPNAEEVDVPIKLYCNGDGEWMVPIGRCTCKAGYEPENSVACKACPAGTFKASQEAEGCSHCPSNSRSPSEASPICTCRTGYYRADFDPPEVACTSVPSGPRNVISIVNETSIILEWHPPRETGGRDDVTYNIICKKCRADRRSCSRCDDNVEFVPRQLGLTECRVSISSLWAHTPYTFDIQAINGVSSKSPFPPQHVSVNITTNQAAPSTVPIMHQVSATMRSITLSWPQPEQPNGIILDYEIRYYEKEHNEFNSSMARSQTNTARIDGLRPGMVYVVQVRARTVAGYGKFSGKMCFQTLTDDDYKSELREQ
Excerpt: A chemiluminescent AlphaScreen™ bead-based proximity assay suitable for HTS was developed to measure the receptor-ligand interaction formed between EphB1 and EphrinB2 (EB2) ectodomains (FIG. 3). Here, when singlet oxygen molecules generated by high energy irradiation of donor beads travel over a constrained distance to excite acceptor beads, a chemiluminescent signal is generated and detected. If an analyte interferes with the EphB1-EB2 protein-protein interaction, close proximity of the donor and acceptor beads will be disrupted resulting in diminished or lost energy transfer and reduced acceptor bead emission.
Test was conducted in the Alpha assay, to see if purified soluble Reelin (previously shown to bind EphB1 ectodomain) can interfere with EphB1-EB2 binding.
The EphB1-EB2 screen was conducted using 0.8 nM of each protein, 50 ng beads per well, and assessed at 5 μM a library of −240,000 small, drug-like chemicals. […] They were also tested in a counter screen designed to identify non-specific compounds. Here, a single-protein Alpha assay was set up using a dual-tagged EphB2-His-Fc ectodomain protein that can bind both donor and acceptor beads to bring them into proximity. If a selected compound simply absorbs the chemiluminescent signal or interferes with bead function/binding or protein folding, it was hypothesized that it would also reduce signals in the single protein assay, and would consider it a false positive.

[2] = target: T2, EphrinB2-EphB2 (Homo sapiens, UniProt P29323); experiment: Octet tetramerization inhibition, immobilized human EphrinB2 binding to 50 nM soluble human EphB2
T2 construct: soluble human EphB1-His, EphB2-His, and EphB4-His ectodomains; commercially available human EphrinB1-Fc (EB1), EphrinB2-Fc (EB2), and EphrinB3-Fc (EB3) ectodomain proteins; purchased
T2 sequence (P29323 19-543 limits assumed): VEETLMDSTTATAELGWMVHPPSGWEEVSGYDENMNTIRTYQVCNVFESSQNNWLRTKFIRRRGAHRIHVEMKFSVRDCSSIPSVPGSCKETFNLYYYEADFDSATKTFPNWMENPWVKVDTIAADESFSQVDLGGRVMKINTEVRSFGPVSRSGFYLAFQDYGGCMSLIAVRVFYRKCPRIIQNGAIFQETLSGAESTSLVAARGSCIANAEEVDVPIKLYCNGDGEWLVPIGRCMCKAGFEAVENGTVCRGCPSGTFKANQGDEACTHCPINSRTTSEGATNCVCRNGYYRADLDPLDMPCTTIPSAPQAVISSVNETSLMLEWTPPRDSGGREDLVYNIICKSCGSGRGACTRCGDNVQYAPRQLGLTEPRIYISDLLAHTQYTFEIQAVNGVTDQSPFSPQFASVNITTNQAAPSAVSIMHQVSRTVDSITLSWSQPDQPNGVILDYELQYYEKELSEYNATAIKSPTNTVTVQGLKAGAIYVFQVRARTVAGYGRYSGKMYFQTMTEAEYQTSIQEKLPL

[3] = target: T2, EphrinB2-EphB2; experiment: Octet 80 sec association/500 sec dissociation, immobilized human EphrinB2-Fc binding to soluble human EphB2-His; conditions: for inhibition at 3.2 µM: EphB2, 25 nM EphB2, 3.2 μM compound, A20-I as max control, 0* = less than 0, no inhibition; for EphB2 Inhibition Percent, Inhibition of Association ONLY: at 3.2 μM and 80 seconds; for EphB2 Inhibition Percent, Inhibition of Association ONLY / EphB2 Inhibition Percent, Inhibition of Association-Dissociation: immobilized human EphrinB2, 25 nM soluble human EphB2; for EphB2 Inhibition Percent, Inhibition of Association-Dissociation: at 3.2 μM and 580 seconds
Outline: (§1)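 EphrinB2-Fc captured on AHC biosensors, then soluble His-tagged EphB ectodomain (25 nM for % inhibition runs) associated 80 s and dissociated 500 s in PBS, 0.05% Tween-20, 1% DMSO ± compound. Compounds tested at 0.1–3.2 μM with a 10 μM max standard; IC50 from AUC of full traces or at 75 s and 135 s.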

[4] = target: T3, EphrinB2-EphB1 (Homo sapiens, UniProt P54762); experiment: Octet 80 sec association/500 sec dissociation, immobilized human EphrinB2-Fc binding to soluble human EphB1-His; conditions: for inhibition at 3.2 µM: EphB1, 25 nM EphB1, 3.2 μM compound, A20-I as max control, 0* = less than 0, no inhibition; for EphB1 Inhibition Percent, Inhibition of Association ONLY: at 3.2 μM and 80 seconds; for EphB1 Inhibition Percent, Inhibition of Association ONLY / EphB1 Inhibition Percent, Inhibition of Association-Dissociation: immobilized human EphrinB2, 25 nM soluble human EphB1; for EphB1 Inhibition Percent, Inhibition of Association-Dissociation: at 3.2 μM and 580 seconds
T3 construct: soluble human EphB1-His, EphB2-His, and EphB4-His ectodomains; commercially available human EphrinB1-Fc (EB1), EphrinB2-Fc (EB2), and EphrinB3-Fc (EB3) ectodomain proteins; purchased
T3 sequence (P54762 18-540 limits assumed): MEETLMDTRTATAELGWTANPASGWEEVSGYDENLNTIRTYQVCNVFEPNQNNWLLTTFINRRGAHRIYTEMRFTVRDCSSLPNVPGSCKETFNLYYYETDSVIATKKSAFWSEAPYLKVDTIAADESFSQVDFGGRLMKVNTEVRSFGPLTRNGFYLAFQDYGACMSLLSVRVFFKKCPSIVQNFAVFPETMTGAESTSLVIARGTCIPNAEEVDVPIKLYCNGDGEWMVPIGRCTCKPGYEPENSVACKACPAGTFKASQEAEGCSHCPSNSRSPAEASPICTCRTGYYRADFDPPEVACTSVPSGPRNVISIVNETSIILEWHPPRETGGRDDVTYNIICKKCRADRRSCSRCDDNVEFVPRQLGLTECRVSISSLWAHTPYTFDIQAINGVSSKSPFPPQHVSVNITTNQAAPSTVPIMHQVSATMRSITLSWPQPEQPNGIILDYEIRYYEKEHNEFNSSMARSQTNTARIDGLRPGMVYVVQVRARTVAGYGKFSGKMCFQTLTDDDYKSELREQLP
Outline: as §1

[5] = target: T4, EphrinB2-EphB4 (Homo sapiens, UniProt P54760); experiment: Octet 80 sec association/500 sec dissociation, immobilized human EphrinB2-Fc binding to soluble human EphB4-His; conditions: for inhibition at 3.2 µM: EphB4, 25 nM EphB4, 3.2 μM compound, A20-I as max control, 0* = less than 0, no inhibition; for EphB4 Inhibition Percent, Inhibition of Association ONLY: at 3.2 μM and 80 seconds; for EphB4 Inhibition Percent, Inhibition of Association ONLY / EphB4 Inhibition Percent, Inhibition of Association-Dissociation: immobilized human EphrinB2, 25 nM soluble human EphB4; for EphB4 Inhibition Percent, Inhibition of Association-Dissociation: at 3.2 μM and 580 seconds
T4 construct: soluble human EphB1-His, EphB2-His, and EphB4-His ectodomains; commercially available human EphrinB1-Fc (EB1), EphrinB2-Fc (EB2), and EphrinB3-Fc (EB3) ectodomain proteins; purchased
T4 sequence (P54760 16-539 limits assumed): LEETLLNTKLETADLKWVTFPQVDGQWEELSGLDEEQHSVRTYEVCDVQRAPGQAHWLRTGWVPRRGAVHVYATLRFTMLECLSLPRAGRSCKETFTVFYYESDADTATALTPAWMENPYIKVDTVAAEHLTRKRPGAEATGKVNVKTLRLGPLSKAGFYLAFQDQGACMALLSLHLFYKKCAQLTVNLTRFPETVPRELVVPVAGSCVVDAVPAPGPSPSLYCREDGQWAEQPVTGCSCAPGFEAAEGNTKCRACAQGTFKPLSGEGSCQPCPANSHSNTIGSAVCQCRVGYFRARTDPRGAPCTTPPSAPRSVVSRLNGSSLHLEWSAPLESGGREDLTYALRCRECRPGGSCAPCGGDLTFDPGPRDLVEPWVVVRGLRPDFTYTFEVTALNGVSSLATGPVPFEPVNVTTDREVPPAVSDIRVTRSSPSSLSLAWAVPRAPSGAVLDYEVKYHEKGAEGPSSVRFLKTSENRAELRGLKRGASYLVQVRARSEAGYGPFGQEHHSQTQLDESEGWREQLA
Outline: as §1

[6] = tetramerization inhibitor IC50 (relative), association step, surmountable tetramer
[7] = read-out: % Inhibition: Association + Dissociation (160 sec)
[8] = read-out: % Inhibition: Association ONLY (80 sec)
[9] = Absolute AUC/IC50, Table A, EphrinB2-EphB2
[10] = Absolute Association IC50 (300 sec), Table A, EphrinB2-EphB2
[11] = Absolute Dissociation IC50 (450 sec), Table A, EphrinB2-EphB2
[12] = Relative AUC/IC50, Table A, EphrinB2-EphB2, compound 7: association only
[13] = Relative Association IC50 (300 sec), Table A, EphrinB2-EphB2
[14] = Relative Dissociation IC50 (450 sec), Table A, EphrinB2-EphB2

Row | Compound | IC50 [2, 6] | IC50 [2, 9] | IC50 [2, 10] | IC50 [2, 11] | IC50 [2, 12] | IC50 [2, 13] | IC50 [2, 14] | EphB2 Inhibition Percent, Inhibition of Association ONLY [3] | EphB2 Inhibition Percent, Inhibition of Association-Dissociation [3] | EphB1 Inhibition Percent, Inhibition of Association ONLY [4] | EphB1 Inhibition Percent, Inhibition of Association-Dissociation [4] | EphB4 Inhibition Percent, Inhibition of Association ONLY [5] | EphB4 Inhibition Percent, Inhibition of Association-Dissociation [5] | other results
1 | Reelin: purified soluble Reelin (previously shown to bind EphB1 ectodomain) | – | – | – | – | – | – | – | – | – | – | – | – | – | antagonism of EphB1-EB2 [1]: almost complete inhibition at 200 nM
2 | CC1CCN(Cc2cc(Br)c(O)c3ncccc23)CC1 [Compound 66, 7-bromo-5-((4-methylpiperidin-1-yl)methyl)quinolin-8-ol, reference compound] | – | – | – | – | – | – | – | – | – | – | – | – | – | antagonism of EphB1-EB2 [1]: did not pass through the Alpha confirmation and counter screens
3 | O=S1(=O)CCN(Cc2cc(Br)c(O)c3ncccc23)CC1 [Compound 16, 4-((7-bromo-8-hydroxyquinolin-5-yl)methyl)thiomorpholine 1,1-dioxide] | ~0.8 µM | – | – | – | – | – | – | – | – | – | – | – | – | inhibition of EphrinB2-EphB interactions ([3]; 3.2 μM, EphB1, EphB2 and EphB4): activity similar to A20-I max control; inhibition at 3.2 µM [3, 7]: 74.5%; inhibition at 3.2 µM [3, 8]: 59.5%; inhibition at 3.2 µM [4, 7]: 48%; inhibition at 3.2 µM [4, 8]: 33%; inhibition at 3.2 µM [5, 7]: 37.2%; inhibition at 3.2 µM [5, 8]: 18.1%
4 | Cc1ccc2c(CN3CCOCC3)cc(Br)c(O)c2n1 [Compound 57, 7-bromo-2-methyl-5-(morpholinomethyl)quinolin-8-ol] | > 3 µM | > 3.2 µM | > 3.2 µM | > 3.2 µM | 2.24 µM | > 3.2 µM | > 3.2 µM | 1.4% | 20.3% | 0*% | 15.3% | 0*% | 8.7% | –
5 | Oc1ccc(CN2CCN(c3ccc(Br)cc3)CC2)c2cccnc12 [Compound 27, 5-((4-(4-bromophenyl)piperazin-1-ium-1-yl)methyl)-8-hydroxyquinolin-1-ium chloride] | – | > 1.6 µM | > 1.6 µM | > 1.6 µM | 0.42 µM | – | – | 16.8% and 29.2% | 60.9% and 43.7% | 24.2% and 33.8% | 57.1% and 43.8% | 11.4/11.4% | 19.5% and 12.6% | –
6 | O=[N+]([O-])c1cc(CN2CCS(=O)(=O)CC2)c2cccnc2c1O [Compound 21, 4-((8-hydroxy-7-nitroquinolin-1-ium-5-yl)methyl)thiomorpholin-4-ium 1,1-dioxide chloride] | – | 1.15 µM and 1.95 µM | 1.74 µM | 1.7 µM | ~1 µM and 0.89 µM | 0.91 µM | 1.07 µM and 1 µM | 36.7% and 57.0% | 51.7% and 69.2% | 24.0% and 23.8% | 36.0% and 28.9% | 0% and 4.3% | – | –
7 | OCc1ccc2c(CN3CCOCC3)ccc(O)c2n1 [Compound 12, 2-(hydroxymethyl)-5-(morpholinomethyl)quinolin-8-ol] | ~3 µM | > 3.2 µM | > 3.2 µM | > 3.2 µM | > 3.2 µM | 2.75 µM | 1.48 µM | 48.1% | 48.1% | 17.4% | 17.4% | 11.0% | 11.0% | –
